# Reference: patent US8933071B2, “Dimethyl fasudil for inducing polyploidization of megakaryocytes and for treating blood and bone marrow diseases and disorders” (Northwestern University, priority 2008, dated 2015)
# Tests used:
# CMK cells = assay: Polyploidization of CMK cells (DNA content); type: cell-based, human; conditions: CMK cells
# Protocol: (A) Y10, (B) GIME, and (C) CMK cells were grown in the presence of TPO, SU6656, or vehicle (DMSO) for 72 hours. DNA content was measured by flow cytometry. The percentages of cells that reach a DNA content of ≧8N are boxed in A and C, those equal to 8N are boxed in B. D) CMK cells were grown as in (C), and cell numbers were enumerated at 0, 24, 48 and 72 h.
# To study how megakaryocytes switch from a proliferative to endomitotic cell cycle, the Src kinase inhibitor SU6656 is being utilized.
# In collaboration with the Broad Institute, a high throughput screen for small molecules was conducted to identify small molecules that preferentially induce polyploidization or differentiation of megakaryocytes. We screened 10,000 compounds from the Broad's extensive collection of small molecules (including known bioactives, kinase and HDAC inhibitors, and natural products) to identify inducers of megakaryocyte polyploidization. […] 6) Data were analyzed using both MetaXpress software and “Cell Profiler,” software designed at MIT and the Broad Institute. […]
# Meg-01 = assay: Polyploidization of Meg-01 cells; type: cell-based
# GIME cells = type: cell-based; conditions: 10 μM, 48 hours, DMSO 0.3%
# Protocol: DNA content was then assessed by flow cytometry. Numbers above the bar indicate % of cells ≧8N. b) After 48 hours, GIME cells from a) were stained with anti-CD42 antibodies and the cell surface expression of CD42 was evaluated by flow cytometry.
# In collaboration with the Broad Institute, a high throughput screen for small molecules was conducted to identify small molecules that preferentially induce polyploidization or differentiation of megakaryocytes. We screened 10,000 compounds from the Broad's extensive collection of small molecules (including known bioactives, kinase and HDAC inhibitors, and natural products) to identify inducers of megakaryocyte polyploidization. The screen was performed in the following manner: 1) 4,000 CMK (human megakaryocytic leukemia) cells were plated into each well of a 384-well plate, 2) 100 n1 of compounds (yielding a final concentration of 10 μM) were pinned into the wells, 3) plates were incubated at 37° C. for 72 hours, 4) cells were fixed and stained with Hoescht, and 5) plates were imaged using an ImageXpressMICRO high content imager with 20× objective. Nine images per well were collected. 6) Data were analyzed using both MetaXpress software and “Cell Profiler,” software designed at MIT and the Broad Institute. Seventy-two plates containing duplicates of nearly 10,000 small molecules were screened.
# [1] = test system: megakaryocyte colonies (CFU-MK) from MPD bone marrow; assay: CFU-MK assay, bone marrow mononuclear cells from a patient with ET; type: cell-based, human; conditions: two doses, 10 days
# Protocol: FIG. 5 illustrates that the Rho kinase inhibitor dimethylfasudil (DMF) (also know as “ROCK inhibitor”) blocks formation of megakaryocyte colonies (CFU-MK) by bone marrow from patients with Myeloproliferative Disease (MPD).
# Data with Patient Samples. Two lead compounds were tested on samples from both MPD (myeloproliferative disease) patients and AMKL (acute megakaryocytic leukemia) patients. […] Referring to FIG. 5, bone marrow mononuclear cells from a patient with ET were cultured with two doses of DMF for 10 days. […] Referring to FIG. 8, bone marrow samples from patients with AMKL were cultured in DMSO (control) or DMF (at 5 μM) for 14 days. Colonies were stained with anti-CD41 antibody and visualized by microcopy (not shown). Total numbers of CD41+ megakaryocyte colonies are shown.
# MPDs Patient Specimens. Mononuclear cells from bone marrow of patients were obtained by informed consent from patients at Northwestern Feinberg School of Medicine. […] The cells were stained with 0.4% trypan blue solution for 5 minutes and live cells were counted. […]
# CFU-MK (Colony forming units-megakarvocvtes) assay. […] Slides were scored microscopically, and megakaryocyte colonies were defined as colonies with at least three megakaryocytes.
# [2] = test system: erythroid colonies in human MPD bone marrow cultures; type: cell-based; conditions: ET patient bone marrow, 14 days
# Protocol: MPDs Patient Specimens. Mononuclear cells from bone marrow of patients were obtained by informed consent from patients at Northwestern Feinberg School of Medicine. Mononuclear cells were separated from marrow with Ficoll (GE Healthcare life sciences, Piscataway, N.J.) and resuspended in IMDM (Iscove's Modified Dulbecco's Media) media without serum. The cells were stained with 0.4% trypan blue solution for 5 minutes and live cells were counted. Live cells were assayed in CFU-MK (“Colony forming units-megakaryocytes”) and BFU-E (“Burst forming unit-erythroid”) assays as well as in liquid culture.
# BFU-E (Burst forming unit-erythroid) assay. Live ET bone marrow cells were added to MethoCult media (4436, StemCell Technologies, Vancouver, BC, Canada) with recombinant human EPO (erythropoeitin, 3 U/mL), recombinant human SCF (stem cell factor, 50 ng/mL), recombinant human GM-CSF (granulocyte macrophage colony-stimulating factor, 10 ng/mL) and recombinant human IL-3 (10 ng/mL). […] Cells were plated in duplicate in 35 mm culture dishes according the manufacturer's protocol. On the 14th day, red colonies composed of hemoglobinized erythroblasts were identified and scored.
# [3] = test system: CD41-cells (all other cell types); type: cell-based, human; conditions: ET patient bone marrow, 5 days
# Protocol: Mononuclear cells from bone marrow of patients were obtained by informed consent from patients at Northwestern Feinberg School of Medicine. Mononuclear cells were separated from marrow with Ficoll (GE Healthcare life sciences, Piscataway, N.J.) and resuspended in IMDM (Iscove's Modified Dulbecco's Media) media without serum. The cells were stained with 0.4% trypan blue solution for 5 minutes and live cells were counted. Live cells were assayed in CFU-MK (“Colony forming units-megakaryocytes”) and BFU-E (“Burst forming unit-erythroid”) assays as well as in liquid culture.
# Liquid culture. Marrow cells from ET patients were also cultured in RPMI with 10% FBS in the presence of recombinant human TPO (thrombopoeitin, 50 ng/ml). […] After 5 days, the cells were collected and stained with APC (allophycocyanin) labeled anti-human CD41 antibody (BD Biosciences San Jose, Calif.). The cells were then stained overnight with 1 μg/mL 4′,6-diamidinio-2-phenylindole (DAPI). DNA content of both CD41+ cells and CD41-negative cells was analyzed by utilizing a BD LSRII flow cytometer (BD Biosciences San Jose, Calif.).
substance,measurement,setting,value
dimethylfasudil [DMF],induction of polyploidization,CMK cells,potent inducer of polyploidization
same,induction of polyploidization,Meg-01,potent inducer of polyploidization
same,expression of the late megakaryocyte marker CD42,GIME cells,66.3%
same,formation of aberrant megakaryocyte colonies (CFU-MK),[1],potently blocked formation
same,formation of aberrant erythroid colonies,[2],potently blocked formation
same,effect on CD41-cells (all other cell types),[3],no effect
